Measurements taken from patent EP0655506B1 (priority 1994, dated 1995).
Where two headings read alike, the source gives them in different places.

Legend:
[1] = target: T1, T7 DNA polymerase mutant T7 C-T2, R R S A K A I N F G L I Y G (Escherichia phage T7, UniProt P00581, D519R/DEL118-145/F524I/F528L/I525N/L529I/N520S/T523A/Y526F); assay: SDS activity gel analysis, incorporation of ddNMP relative to dNMP (Example 2); format: biochemical, bacteriophage T7; details: renatured enzyme in gel; 1.5 µM 4dNTPs with or without 30 µM ddTTP; 37 °C 4 hr
T1 construct: made in house; host or cells: induced cells of a strain producing E. coli thioredoxin; crude lysate, renatured in gel
T1 sequence (P00581 other isoform, or with tags, fused parts or gaps DEL118-145/D519R/N520S/T523A/F524I/I525N/Y526F/F528L/L529I): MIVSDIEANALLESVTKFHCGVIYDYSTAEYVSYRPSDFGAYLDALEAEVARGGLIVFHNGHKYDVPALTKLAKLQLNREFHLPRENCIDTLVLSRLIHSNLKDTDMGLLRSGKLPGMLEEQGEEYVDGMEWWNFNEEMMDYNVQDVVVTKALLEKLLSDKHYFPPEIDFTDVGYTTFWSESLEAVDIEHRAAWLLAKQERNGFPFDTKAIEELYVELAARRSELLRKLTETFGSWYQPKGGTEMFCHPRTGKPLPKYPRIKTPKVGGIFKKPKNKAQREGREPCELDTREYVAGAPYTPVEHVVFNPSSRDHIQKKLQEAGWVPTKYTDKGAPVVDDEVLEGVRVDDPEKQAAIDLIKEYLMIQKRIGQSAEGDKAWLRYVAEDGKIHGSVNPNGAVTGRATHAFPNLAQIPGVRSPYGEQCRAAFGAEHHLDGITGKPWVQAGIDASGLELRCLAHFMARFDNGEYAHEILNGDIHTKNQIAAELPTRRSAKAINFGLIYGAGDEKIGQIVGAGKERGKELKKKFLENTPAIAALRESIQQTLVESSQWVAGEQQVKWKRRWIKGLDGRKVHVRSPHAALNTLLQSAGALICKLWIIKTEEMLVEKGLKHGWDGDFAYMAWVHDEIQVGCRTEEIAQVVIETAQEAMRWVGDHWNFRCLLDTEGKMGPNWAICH
T1 sequence (P0AA25 2-109, stated change not applied, further chain): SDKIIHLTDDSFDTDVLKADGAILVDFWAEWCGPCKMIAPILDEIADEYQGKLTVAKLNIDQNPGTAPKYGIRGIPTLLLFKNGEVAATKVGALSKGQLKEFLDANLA
Protocol: (§1) Mutant DNA polymerases are screened for their ability to incorporate dideoxynucleotides by SDS activity gel analysis. The procedure is a modification of that described by Spanos and Hübscher 91 Methods in Enzymology 263, 1983 and Karawya et al. 135 Analytical Biochemistry 318, 1983. Briefly, 10 ml of cells are induced for 4 to 6 hours and then pelleted. The cell pellet is resuspended in 0.3 ml 25 mM Tris HCl, pH 7.0, 5 mM EDTA. 20 µl of the resuspended cells are mixed with 40 µl of a solution of 1% SDS (sodium dodecyl sulfate), 2% mercaptoethanol, 30 % glycerol, 0.04% bromphenol blue, and 100 mM TrisHCl, pH 6.8. The mixtures are incubated at 37 °C for 5 min, and then 20 µl aliquots are loaded in duplicate onto two SDS polyacrylamide gels. The SDS polyacrylamide gels consist of a resolving gel that contains 8% polyacrylamide, 0.27% bisacrylamide, 190 mM TrisHCl, pH 8.8, 0.05% SDS, and 25 µg/ml denatured salmon sperm DNA, and a stacking gel that consists of 5% polyacrylamide, 0.17% bisacrylamide, 150 mM TrisHCl, pH 6.8, and 0.1% SDS. The two gels are electrophoresed at 100 V for 13 hr at a constant temperature of 13 °C in an electrophoresis buffer consisting of 190 mM TrisHCl and pH 8.8, 0.05% SDS.
(§2) After electrophoresis, the gels are washed over 8 hr in 4 changes of 500 ml each of Renaturation Buffer (50 mM Tris.HCl, pH 7.5, 5 mM magnesium acetate, 1 mM dithiothreitol, 40 mM KCI, 400 µg/ml bovine serum albumin, 16% glycerol and 0.95 mM EDTA) at 4 °C.
(§3) The renatured proteins are assayed for DNA polymerase activity by incubating each of the two gels in 6 ml of Renaturation Buffer, 1.5 µM 4dNTPs, 4 µl of [a-^32P]dATP (800 Ci/mmol, 10 mCi/ml), and 80 µg of purified thioredoxin. One of the mixtures also contains 30 µM ddTTP (a 20-fold molar excess over dTTP). The mixtures are incubated for 4 hr at 37 °C (70 °C for 2 hr for thermophilic DNA polymerases).
(§4) After incubation the gels are washed for 8 hr against four changes of 5% trichloracetic acid and 1% sodium pyrophosphate. The gels are then dried and autoradiographed.
(§5) To determine whether a mutant DNA polymerase is discriminating more or less against ddTTP, the intensities of the radioactive bands are compared on the two gels that were incubated in the presence and absence of ddTTP, and the ratio of the signal in the two bands for the unmodified DNA polymerase is compared with the ratio of the signal in the two bands for each of the mutants.

[2] = target: T2, T7 DNA polymerase mutant T7 C-T3, R R S A K T F I Y G F L Y G (Escherichia phage T7, UniProt P00581, D519R/DEL118-145/N520S); assay: as above; format: biochemical, bacteriophage T7; details: renatured enzyme in gel; 1.5 µM 4dNTPs with or without 30 µM ddTTP; 37 °C 4 hr
T2 construct: made in house; host or cells: induced cells of a strain producing E. coli thioredoxin; crude lysate, renatured in gel
T2 sequence (P00581 other isoform, or with tags, fused parts or gaps DEL118-145/D519R/N520S): as the sequence (P00581 other isoform, or with tags, fused parts or gaps DEL118-145/D519R/N520S/T523A/F524I/I525N/Y526F/F528L/L529I) above, with A495T, I496F, N497I, F498Y, L500F, I501L counted along it
T2 sequence (P0AA25 2-109, stated change not applied, further chain): as the sequence (P0AA25 2-109, stated change not applied, further chain) above
Protocol: as §1, §2, §3, §4, §5

[3] = target: T3, T7 DNA polymerase mutant T7 C-T4, R D N A K A I N F G F L Y G (Escherichia phage T7, UniProt P00581, DEL118-145/F524I/I525N/T523A/Y526F); assay: as above; format: biochemical, bacteriophage T7; details: renatured enzyme in gel; 1.5 µM 4dNTPs with or without 30 µM ddTTP; 37 °C 4 hr
T3 construct: made in house; host or cells: induced cells of a strain producing E. coli thioredoxin; crude lysate, renatured in gel
T3 sequence (P00581 other isoform, or with tags, fused parts or gaps DEL118-145/T523A/F524I/I525N/Y526F): as the sequence (P00581 other isoform, or with tags, fused parts or gaps DEL118-145/D519R/N520S/T523A/F524I/I525N/Y526F/F528L/L529I) above, with R491D, S492N, L500F, I501L counted along it
T3 sequence (P0AA25 2-109, stated change not applied, further chain): as the sequence (P0AA25 2-109, stated change not applied, further chain) above
Protocol: as §1, §2, §3, §4, §5

[4] = target: T4, T7 DNA polymerase mutant T7 C-T5, R D N A K A I I Y G F L Y G (Escherichia phage T7, UniProt P00581, DEL118-145/F524I/T523A); assay: as above; format: biochemical, bacteriophage T7; details: renatured enzyme in gel; 1.5 µM 4dNTPs with or without 30 µM ddTTP; 37 °C 4 hr
T4 construct: made in house; host or cells: induced cells of a strain producing E. coli thioredoxin; crude lysate, renatured in gel
T4 sequence (P0AA25 2-109, stated change not applied): as the sequence (P0AA25 2-109, stated change not applied, further chain) above
T4 sequence (P00581 other isoform, or with tags, fused parts or gaps DEL118-145/T523A/F524I): as the sequence (P00581 other isoform, or with tags, fused parts or gaps DEL118-145/D519R/N520S/T523A/F524I/I525N/Y526F/F528L/L529I) above, with R491D, S492N, N497I, F498Y, L500F, I501L counted along it
Protocol: as §1, §2, §3, §4, §5

[5] = target: T5, T7 DNA polymerase mutant T7 C-T6, R D N A K T F N F G F L Y G (Escherichia phage T7, UniProt P00581, DEL118-145/I525N/Y526F); assay: as above; format: biochemical, bacteriophage T7; details: renatured enzyme in gel; 1.5 µM 4dNTPs with or without 30 µM ddTTP; 37 °C 4 hr
T5 construct: made in house; host or cells: induced cells of a strain producing E. coli thioredoxin; crude lysate, renatured in gel
T5 sequence (P0AA25 2-109, stated change not applied): as the sequence (P0AA25 2-109, stated change not applied, further chain) above
T5 sequence (P00581 other isoform, or with tags, fused parts or gaps DEL118-145/I525N/Y526F): as the sequence (P00581 other isoform, or with tags, fused parts or gaps DEL118-145/D519R/N520S/T523A/F524I/I525N/Y526F/F528L/L529I) above, with R491D, S492N, A495T, I496F, L500F, I501L counted along it
Protocol: as §1, §2, §3, §4, §5

[6] = target: T6, T7 DNA polymerase mutant T7 C-T7, R D N A K T F N Y G F L Y G (Escherichia phage T7, UniProt P00581, DEL118-145/I525N); assay: as above; format: biochemical, bacteriophage T7; details: renatured enzyme in gel; 1.5 µM 4dNTPs with or without 30 µM ddTTP; 37 °C 4 hr
T6 construct: made in house; host or cells: induced cells of a strain producing E. coli thioredoxin; crude lysate, renatured in gel
T6 sequence (P0AA25 2-109, stated change not applied): as the sequence (P0AA25 2-109, stated change not applied, further chain) above
T6 sequence (P00581 other isoform, or with tags, fused parts or gaps DEL118-145/I525N): as the sequence (P00581 other isoform, or with tags, fused parts or gaps DEL118-145/D519R/N520S/T523A/F524I/I525N/Y526F/F528L/L529I) above, with R491D, S492N, A495T, I496F, F498Y, L500F, I501L counted along it
Protocol: as §1, §2, §3, §4, §5

[7] = target: T7, T7 DNA polymerase mutant T7 C-T8 (Y526F), R D N A K T F I F G F L Y G (Escherichia phage T7, UniProt P00581, DEL118-145/Y526F); assay: as above; format: biochemical, bacteriophage T7
T7 construct: made in house; host or cells: induced cells of a strain producing E. coli thioredoxin; crude lysate, renatured in gel
T7 sequence (P00581 other isoform, or with tags, fused parts or gaps DEL118-145/Y526F): as the sequence (P00581 other isoform, or with tags, fused parts or gaps DEL118-145/D519R/N520S/T523A/F524I/I525N/Y526F/F528L/L529I) above, with R491D, S492N, A495T, I496F, N497I, L500F, I501L counted along it
T7 sequence (P0AA25 2-109, stated change not applied, further chain): as the sequence (P0AA25 2-109, stated change not applied, further chain) above
Protocol: as §1, §2, §3, §4, §5

[8] = target: T8, T7 DNA polymerase, wild type (T7 WT), R D N A K T F I Y G F L Y G (Escherichia phage T7, UniProt P00581, DEL118-145); assay: as above; format: biochemical, bacteriophage T7
T8 construct: made in house; host or cells: induced cells of a strain producing E. coli thioredoxin; crude lysate, renatured in gel
T8 sequence (P00581 other isoform, or with tags, fused parts or gaps DEL118-145): as the sequence (P00581 other isoform, or with tags, fused parts or gaps DEL118-145/D519R/N520S/T523A/F524I/I525N/Y526F/F528L/L529I) above, with R491D, S492N, A495T, I496F, N497I, F498Y, L500F, I501L counted along it
T8 sequence (P0AA25 2-109, stated change not applied, further chain): as the sequence (P0AA25 2-109, stated change not applied, further chain) above
Protocol: as §1, §2, §3, §4, §5

[9] = target: T9, Taq DNA polymerase mutant Taq C-Q1, R D N A K T I N F G V L Y G (Thermus aquaticus, UniProt P19821, A661N/R660D); assay: as above; format: biochemical; details: renatured enzyme in gel; 1.5 µM 4dNTPs with or without 30 µM ddTTP; 70 °C 2 hr
T9 construct: the large fragment of Taq DNA polymerase (KlenTaq or _Taq DNA polymerase); made in house; crude lysate, renatured in gel
T9 sequence (P19821 236-832 R660D/A661N): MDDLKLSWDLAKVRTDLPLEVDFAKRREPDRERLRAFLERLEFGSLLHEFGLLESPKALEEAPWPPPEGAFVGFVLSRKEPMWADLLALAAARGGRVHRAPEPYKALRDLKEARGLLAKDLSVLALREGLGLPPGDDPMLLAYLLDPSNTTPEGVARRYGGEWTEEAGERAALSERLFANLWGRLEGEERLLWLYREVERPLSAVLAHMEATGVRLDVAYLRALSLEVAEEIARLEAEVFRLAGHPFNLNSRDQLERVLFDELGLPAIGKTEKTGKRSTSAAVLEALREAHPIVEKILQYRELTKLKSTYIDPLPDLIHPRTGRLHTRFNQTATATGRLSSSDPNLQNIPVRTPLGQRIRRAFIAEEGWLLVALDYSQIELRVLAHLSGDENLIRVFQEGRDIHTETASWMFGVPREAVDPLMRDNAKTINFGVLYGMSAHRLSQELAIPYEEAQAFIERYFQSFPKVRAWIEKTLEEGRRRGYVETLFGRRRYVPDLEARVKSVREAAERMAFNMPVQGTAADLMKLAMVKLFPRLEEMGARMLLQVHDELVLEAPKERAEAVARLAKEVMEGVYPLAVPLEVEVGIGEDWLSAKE
Protocol: as §1, §2, §3, §4, §5

[10] = target: T10, Taq DNA polymerase mutant Taq C-Q3, R R A A K T I I Y G V L Y G (Thermus aquaticus, UniProt P19821, F667Y/N666I); assay: as above; format: biochemical; details: renatured enzyme in gel; 1.5 µM 4dNTPs with or without 30 µM ddTTP; 70 °C 2 hr
T10 construct: the large fragment of Taq DNA polymerase (KlenTaq or _Taq DNA polymerase); made in house; crude lysate, renatured in gel
T10 sequence (P19821 236-832 N666I/F667Y): as the sequence (P19821 236-832 R660D/A661N) above, with D425R, N426A, N431I, F432Y counted along it
Protocol: as §1, §2, §3, §4, §5

[11] = target: T11, Taq DNA polymerase mutant Tqa C-Q5 (F667Y), R R A A K T I N Y G V L Y G (Thermus aquaticus, UniProt P19821, F667Y); assay: as above; format: biochemical; details: renatured enzyme in gel; 1.5 µM 4dNTPs with or without 30 µM ddTTP; 70 °C 2 hr
T11 construct: the large fragment of Taq DNA polymerase (KlenTaq or _Taq DNA polymerase); made in house; crude lysate, renatured in gel
T11 sequence (P19821 236-832 F667Y): as the sequence (P19821 236-832 R660D/A661N) above, with D425R, N426A, F432Y counted along it
Protocol: as §1, §2, §3, §4, §5

[12] = target: T12, E. coli DNA polymerase I (Klenow fragment) (Escherichia coli, UniProt P00582); details: cited from earlier work
T12 construct: manganese reduces the discrimination of Klenow fragment against ddATP from 550 to 3.9 fold
T12 sequence (P00582 324-928): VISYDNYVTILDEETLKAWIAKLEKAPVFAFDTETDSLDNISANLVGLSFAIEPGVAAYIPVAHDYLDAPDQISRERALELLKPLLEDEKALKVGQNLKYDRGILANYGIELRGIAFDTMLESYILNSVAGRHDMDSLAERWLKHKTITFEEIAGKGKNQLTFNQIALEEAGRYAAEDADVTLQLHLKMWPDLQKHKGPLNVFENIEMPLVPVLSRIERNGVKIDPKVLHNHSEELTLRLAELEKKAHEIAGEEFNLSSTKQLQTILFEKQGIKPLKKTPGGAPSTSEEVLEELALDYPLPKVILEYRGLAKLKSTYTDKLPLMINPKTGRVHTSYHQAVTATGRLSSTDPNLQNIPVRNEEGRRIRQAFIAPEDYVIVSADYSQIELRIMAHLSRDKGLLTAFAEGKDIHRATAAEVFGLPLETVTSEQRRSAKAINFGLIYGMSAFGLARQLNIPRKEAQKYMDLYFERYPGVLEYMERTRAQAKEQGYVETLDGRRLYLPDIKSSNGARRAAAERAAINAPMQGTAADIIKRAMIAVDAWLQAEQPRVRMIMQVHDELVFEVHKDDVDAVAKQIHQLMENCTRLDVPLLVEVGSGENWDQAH

[13] = renatured enzyme in gel, 1.5 µM 4dNTPs with or without 30 µM ddTTP, 37 °C 4 hr

Compound | ddNTP Discrimination [1] | ddNTP Discrimination [2] | ddNTP Discrimination [3] | ddNTP Discrimination [4] | ddNTP Discrimination [5] | ddNTP Discrimination [6] | intensity of the bands in the presence versus the absence of ddTTP ([7]; 30 µM ddTTP (20-fold molar excess over dTTP), 1.5 µM 4dNTPs, within a factor of two) | ddNTP Discrimination [7, 13] | intensity of the bands in the presence of ddTTP relative to the absence of ddTTP ([8]; 30 µM ddTTP (20-fold molar excess over dTTP), 1.5 µM 4dNTPs) | ddNTP Discrimination [8, 13] | ddNTP Discrimination [9] | ddNTP Discrimination [10] | ddNTP Discrimination [11] | discrimination against ddATP ([12]; in the presence of manganese) | discrimination against ddATP ([12]; magnesium)
Cc1cn([C@H]2CC[C@@H](COP(=O)(O)OP(=O)(O)OP(=O)(O)O)O2)c(=O)[nH]c1=O [ddTTP] | High | Low | High | Low | High | Low | approximately the same intensity | High | < 5% | Low | High | Low | Low | – | –
Nc1ncnc2c1ncn2[C@H]1CC[C@@H](COP(=O)(O)OP(=O)(O)OP(=O)(O)O)O1 [ddATP] | – | – | – | – | – | – | – | – | – | – | – | – | – | 3.9 fold | 550 fold
